Experimental findings from PubChem BioAssay (NCI) are described below.

Test systems include A549 NSCLC; CAKI-1 renal; IGROV1 ovarian; NCI-H460 lung; NCI/ADR-RES ovarian; OVCAR-8 ovarian; PC-3 prostate; SK-MEL-28 melanoma; SN12C renal; T-47D breast.
Common to all, as to experiment: NCI-60 cell line screen, 48 h

The structures appear in SMILES notation.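 A five-concentration, 48-hour dose response in 96-well plates underlies each endpoint, interpolated linearly between surrounding concentrations. GI50: concentration for 50% inhibition of growth. TGI: concentration producing complete growth inhibition.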

In the case of `O=C(Nc1ccc(Br)cc1)Nc1nn(C(=O)Nc2ccc(Br)cc2)c2ccccc12`, the GI50 in the assay on A549 NSCLC was 51.5 µM; in the assay on CAKI-1 renal, 44.2 µM; in the assay on IGROV1 ovarian, 52.6 µM; in the assay on NCI-H460 lung, 34.1 µM; with NCI/ADR-RES ovarian, 55.6 µM; in the assay on OVCAR-8 ovarian it was 36.2 µM. Moreover, the GI50 was greater than 51.6 µM in the assay on PC-3 prostate, 96.9 µM in the assay on SK-MEL-28 melanoma, 43.9 µM with SN12C renal and 28.1 µM with T-47D breast. For the same compound, the TGI was greater than 100 µM in the assay on A549 NSCLC; greater than 84 µM with CAKI-1 renal; greater than 100 µM with IGROV1 ovarian; greater than 100 µM with NCI-H460 lung; greater than 100 µM in the assay on NCI/ADR-RES ovarian; greater than 100 µM with OVCAR-8 ovarian. The TGI in the assay on PC-3 prostate is greater than 100 µM; in the assay with SK-MEL-28 melanoma, greater than 100 µM; in the assay on SN12C renal it was greater than 100 µM; with T-47D breast, greater than 93 µM.
For the compound `CNCCNc1nc2ccccc2c2c(=O)c3cc(OC)ccc3sc12`, the GI50 was 1.71 µM in the assay on A549 NSCLC; 1.5 µM in the assay on CAKI-1 renal; 1.55 µM in the assay with IGROV1 ovarian; 1.71 µM with NCI-H460 lung; 1.68 µM with NCI/ADR-RES ovarian; 1.91 µM in the assay with OVCAR-8 ovarian. Also, the GI50 is 1.47 µM with PC-3 prostate, 1.84 µM with SK-MEL-28 melanoma, 1.5 µM in the assay with SN12C renal and 1.71 µM in the assay with T-47D breast. The TGI in the assay with A549 NSCLC is 3.41 µM; in the assay with CAKI-1 renal, 2.97 µM; in the assay with IGROV1 ovarian, 3.04 µM; with NCI-H460 lung, 3.25 µM; in the assay on NCI/ADR-RES ovarian it was 3.48 µM; with OVCAR-8 ovarian, 4.39 µM. Also, the TGI with PC-3 prostate was 2.94 µM; in the assay on SK-MEL-28 melanoma it was 3.34 µM; in the assay on SN12C renal, 2.96 µM; with T-47D breast, 3.66 µM.
In the case of `CC12CC=CCC1CCC1C2CCC2(C)C(c3ccc(=O)oc3)CCC12O` (stereo not given), the GI50 with A549 NSCLC is 0.032 µM; in the assay on CAKI-1 renal, 0.135 µM; in the assay on IGROV1 ovarian it was 0.0737 µM; in the assay with NCI-H460 lung, 0.0338 µM; with NCI/ADR-RES ovarian, 0.0485 µM; in the assay with OVCAR-8 ovarian, 0.0944 µM. Moreover, the GI50 in the assay with PC-3 prostate was 0.0747 µM; with SK-MEL-28 melanoma, 0.3 µM; in the assay on SN12C renal it was 0.0378 µM; in the assay with T-47D breast it was 0.23 µM. Besides, the TGI in the assay on A549 NSCLC was found to be 0.119 µM; in the assay on CAKI-1 renal, 0.448 µM; with IGROV1 ovarian, 1.41 µM; in the assay on NCI-H460 lung, 0.128 µM; in the assay on NCI/ADR-RES ovarian, 0.276 µM; in the assay on OVCAR-8 ovarian, 0.324 µM. The TGI in the assay on PC-3 prostate came to 0.309 µM; in the assay on SK-MEL-28 melanoma, 1.37 µM; with SN12C renal it was 0.47 µM; in the assay with T-47D breast, 0.887 µM.
Turning to `COc1ccc(NC(=O)n2nc(/C=C\c3ccc(O)c(OC)c3)cc2/C=C\c2ccc(O)c(OC)c2)cc1`, the GI50 in the assay on A549 NSCLC is 5.5 µM; in the assay with CAKI-1 renal, 3.6 µM; in the assay on IGROV1 ovarian it was 4.49 µM; in the assay with NCI-H460 lung it was 4.24 µM; in the assay on NCI/ADR-RES ovarian, 4.28 µM; in the assay on OVCAR-8 ovarian it was 5.32 µM. Also, the GI50 with PC-3 prostate is 5.11 µM; in the assay on SK-MEL-28 melanoma it was 3.52 µM; in the assay on SN12C renal it was 3.05 µM; with T-47D breast, 3.68 µM. For the same compound, the TGI in the assay with A549 NSCLC was 97.9 µM; with CAKI-1 renal, greater than 100 µM; in the assay with IGROV1 ovarian it was 57 µM; with NCI-H460 lung, 31.4 µM; in the assay with NCI/ADR-RES ovarian it was greater than 100 µM; in the assay with OVCAR-8 ovarian, 59.9 µM. The TGI with PC-3 prostate is greater than 100 µM; with SK-MEL-28 melanoma it was 92.7 µM; with SN12C renal, 33.7 µM; with T-47D breast it was 25.8 µM.
As to `[N-]=[N+]=CC(=O)COC(=O)c1ccccc1`, the TGI in the assay with A549 NSCLC, in the assay with CAKI-1 renal, in the assay on IGROV1 ovarian, in the assay on NCI-H460 lung, with NCI/ADR-RES ovarian and in the assay with OVCAR-8 ovarian was greater than 100 µM each time. In addition, the TGI in the assay on PC-3 prostate, with SK-MEL-28 melanoma, in the assay with SN12C renal and in the assay on T-47D breast was greater than 100 µM throughout.
`Nc1nc(N)nc(CC(=O)O)n1`: the TGI in the assay with A549 NSCLC, in the assay on CAKI-1 renal, with IGROV1 ovarian, with NCI-H460 lung, in the assay on NCI/ADR-RES ovarian and in the assay with OVCAR-8 ovarian was greater than 100 µM each time. Moreover, the TGI with PC-3 prostate, in the assay on SK-MEL-28 melanoma, in the assay on SN12C renal and with T-47D breast was greater than 100 µM throughout.
For `C/C(=C(/c1ccc(O)cc1)c1ccc(Cl)cc1)c1ccccc1`, the GI50 was 0.723 µM in the assay on A549 NSCLC; 0.781 µM with CAKI-1 renal; 0.671 µM with IGROV1 ovarian; 0.471 µM in the assay with NCI-H460 lung; 0.668 µM in the assay with NCI/ADR-RES ovarian; 0.9 µM in the assay with OVCAR-8 ovarian. In addition, the GI50 was 0.721 µM with PC-3 prostate, 0.685 µM with SK-MEL-28 melanoma, 0.466 µM in the assay with SN12C renal and 0.762 µM with T-47D breast. For the same compound, the TGI in the assay on A549 NSCLC came out at 2.53 µM; in the assay on CAKI-1 renal it was 2.68 µM; in the assay with IGROV1 ovarian, 2.22 µM; with NCI-H460 lung, 0.945 µM; with NCI/ADR-RES ovarian, 1.89 µM; in the assay with OVCAR-8 ovarian, 3.21 µM. For the same compound, the TGI in the assay with PC-3 prostate is 2.56 µM; in the assay with SK-MEL-28 melanoma, 2.18 µM; in the assay on SN12C renal, 0.977 µM; with T-47D breast it was 3.22 µM.
On to `COc1ccc([C@@H](O)c2cc(-c3ncnc4cc(N5CCOCC5)ccc34)c(F)cc2Cl)nn1`, for which the GI50 in the assay on A549 NSCLC was 2.77 µM; with CAKI-1 renal it was 1.99 µM; in the assay on IGROV1 ovarian, 0.469 µM; with NCI-H460 lung, 2.92 µM; in the assay on NCI/ADR-RES ovarian, 4.87 µM; in the assay with OVCAR-8 ovarian, 5.92 µM. Further, the GI50 in the assay with PC-3 prostate is 0.865 µM; with SK-MEL-28 melanoma, 2.07 µM; in the assay on SN12C renal, 2.45 µM; in the assay with T-47D breast, 0.228 µM. Further, the TGI was 21 µM in the assay with A549 NSCLC; greater than 100 µM with CAKI-1 renal; 4.99 µM in the assay on IGROV1 ovarian; 43.4 µM in the assay on NCI-H460 lung; 95.4 µM with NCI/ADR-RES ovarian; 78.4 µM with OVCAR-8 ovarian. The TGI with PC-3 prostate is 30.9 µM; in the assay on SK-MEL-28 melanoma, 38.1 µM; in the assay with SN12C renal, greater than 100 µM; in the assay on T-47D breast, 1.44 µM.
